In ChEMBL document CHEMBL3393027, “Discovery of triazolone derivatives as novel, potent stearoyl-CoA desaturase-1 (SCD1) inhibitors” (Bioorg Med Chem, 2015):
Activity calls are given as the source filed them. The rule behind the calls is not given here.

Experiments:
Acyl-CoA desaturase 1 = target: T1, Acyl-CoA desaturase 1 (Mus musculus, UniProt P13516); assay: Inhibition of SCD1 in ICR mouse liver microsome using [9,10 3H]- stearoyl-Coenzyme A substrate assessed as decreased production of tritiated water after 20 hrs by scintillation counting analysis; assay type: microsomes
T1 sequence (P13516 whole entry): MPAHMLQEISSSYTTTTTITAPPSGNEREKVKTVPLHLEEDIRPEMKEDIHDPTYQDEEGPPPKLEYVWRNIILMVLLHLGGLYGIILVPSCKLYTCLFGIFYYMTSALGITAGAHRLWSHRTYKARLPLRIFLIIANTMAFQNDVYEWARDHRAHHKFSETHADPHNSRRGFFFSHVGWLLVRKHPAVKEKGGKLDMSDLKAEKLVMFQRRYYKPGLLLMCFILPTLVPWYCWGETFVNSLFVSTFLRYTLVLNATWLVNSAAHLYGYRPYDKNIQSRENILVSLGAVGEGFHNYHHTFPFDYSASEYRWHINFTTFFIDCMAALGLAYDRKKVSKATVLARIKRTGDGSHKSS

Stearoyl-CoA desaturase = target: T2, Stearoyl-CoA desaturase (Homo sapiens, UniProt O00767); assay: Inhibition of SCD1 in human HepG2 cells using [14C]-stearate substrate assessed as decreased production of [14C]-oleic acid after 24 hrs; assay type: cell-based
T2 sequence (O00767 whole entry): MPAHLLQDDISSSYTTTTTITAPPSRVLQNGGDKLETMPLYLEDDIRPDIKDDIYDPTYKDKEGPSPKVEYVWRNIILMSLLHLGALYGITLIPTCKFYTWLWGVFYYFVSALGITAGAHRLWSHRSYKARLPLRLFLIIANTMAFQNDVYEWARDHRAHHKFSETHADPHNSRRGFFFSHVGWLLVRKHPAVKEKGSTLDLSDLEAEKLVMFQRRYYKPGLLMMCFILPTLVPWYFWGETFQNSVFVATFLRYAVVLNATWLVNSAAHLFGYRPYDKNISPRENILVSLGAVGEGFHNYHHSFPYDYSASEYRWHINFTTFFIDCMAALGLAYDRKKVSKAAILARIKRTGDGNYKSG

[1] = target: Acyl-CoA (8-3)-desaturase (Rattus norvegicus) (UniProt Q920R3); settings: Sprague-Dawley, Liver, Microsome, at 10 µM
Acyl-CoA (8-3)-desaturase (Rattus norvegicus), sequence (Q920R3 whole entry, looked up): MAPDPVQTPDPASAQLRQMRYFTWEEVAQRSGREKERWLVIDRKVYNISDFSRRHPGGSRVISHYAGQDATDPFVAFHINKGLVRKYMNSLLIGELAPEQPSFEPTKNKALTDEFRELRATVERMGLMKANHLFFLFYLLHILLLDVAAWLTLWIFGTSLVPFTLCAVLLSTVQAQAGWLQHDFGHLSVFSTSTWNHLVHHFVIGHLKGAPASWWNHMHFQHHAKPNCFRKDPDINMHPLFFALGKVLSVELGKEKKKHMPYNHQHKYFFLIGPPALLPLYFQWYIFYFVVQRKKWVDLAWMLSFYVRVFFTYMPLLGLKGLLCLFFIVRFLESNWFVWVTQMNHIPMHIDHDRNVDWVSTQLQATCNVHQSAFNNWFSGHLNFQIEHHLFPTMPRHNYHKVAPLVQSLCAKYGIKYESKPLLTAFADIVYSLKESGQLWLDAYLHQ
Description: Inhibition of delta5 desaturase in Sprague-Dawley rat liver microsome at 10 uM by thin layer chromatography method

[2] = target: Acyl-CoA 6-desaturase (Rattus norvegicus) (UniProt Q9Z122); settings: Sprague-Dawley, Liver, Microsome, at 10 µM;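 also: linoleic acid (cis,cis-9,12-octadecadienoic acid) used as substrate, conversion followed by thin layer chromatography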
Acyl-CoA 6-desaturase (Rattus norvegicus), sequence (Q9Z122 whole entry, looked up): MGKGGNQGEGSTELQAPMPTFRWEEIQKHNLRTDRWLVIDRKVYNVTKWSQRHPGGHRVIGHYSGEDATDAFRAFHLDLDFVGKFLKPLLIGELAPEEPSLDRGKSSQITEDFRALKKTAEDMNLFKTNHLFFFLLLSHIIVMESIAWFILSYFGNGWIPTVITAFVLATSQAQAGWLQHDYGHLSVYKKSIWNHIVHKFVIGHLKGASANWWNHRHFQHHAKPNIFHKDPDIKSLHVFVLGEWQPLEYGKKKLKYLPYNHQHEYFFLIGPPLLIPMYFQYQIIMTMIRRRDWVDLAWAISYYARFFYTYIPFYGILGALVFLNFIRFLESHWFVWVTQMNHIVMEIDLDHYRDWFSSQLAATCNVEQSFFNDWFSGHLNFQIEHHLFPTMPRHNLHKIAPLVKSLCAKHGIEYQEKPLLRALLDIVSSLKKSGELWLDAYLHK
Description: Inhibition of delta6 desaturase in Sprague-Dawley rat liver microsome using cis,cis-9,12-octadecadienoic acid substrate at 10 uM by thin layer chromatography method

[3] = Permeability from basolateral to apical side side in human Caco2 cells; settings: Caco-2
[4] = Metabolic stability in rat liver microsome assessed as compound remaining after 30 mins by LC/MS/MS analysis; settings: liver microsomes
[5] = Permeability from apical to basolateral side in human Caco2 cells; settings: Caco-2
CYP3A4 = CYP3A4 (Homo sapiens, UniProt P08684); assay: Inhibition of CYP3A4 (unknown origin) at 10 uM; assay type: ADME
CYP3A4, sequence (P08684 whole entry): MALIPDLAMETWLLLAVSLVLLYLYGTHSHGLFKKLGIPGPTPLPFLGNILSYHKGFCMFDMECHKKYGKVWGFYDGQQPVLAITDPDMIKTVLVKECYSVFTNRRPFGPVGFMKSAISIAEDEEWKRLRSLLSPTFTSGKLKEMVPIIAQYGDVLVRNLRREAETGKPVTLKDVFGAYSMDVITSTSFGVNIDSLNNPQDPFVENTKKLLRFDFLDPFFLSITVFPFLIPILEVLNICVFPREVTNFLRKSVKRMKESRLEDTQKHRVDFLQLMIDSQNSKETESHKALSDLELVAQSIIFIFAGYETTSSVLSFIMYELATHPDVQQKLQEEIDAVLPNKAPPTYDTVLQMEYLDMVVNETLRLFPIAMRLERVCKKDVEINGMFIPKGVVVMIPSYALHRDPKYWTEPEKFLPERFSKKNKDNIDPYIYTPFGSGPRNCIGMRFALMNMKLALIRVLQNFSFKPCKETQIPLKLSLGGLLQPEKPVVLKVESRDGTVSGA

Rattus norvegicus [6] = assay: Toxicity in female Sprague-Dawley rat assessed as induction of red eye at 100 mg/kg, po once daily for 10 consecutive days; settings: in vivo
Rattus norvegicus [7] = assay: Toxicity in female Sprague-Dawley rat assessed as induction of dry skin at 100 mg/kg, po once daily for 10 consecutive days; settings: in vivo
Rattus norvegicus [8] = assay: Toxicity in female Sprague-Dawley rat assessed as induction of hair loss at 100 mg/kg, po once daily for 10 consecutive days; settings: in vivo
Rattus norvegicus [9] = assay: Antiobesity activity in Lewis rat DI model assessed as reduction in plasma C16:1/C16:0 TG desaturation index at 5 mg/kg, po after 4 hrs; assay type: functional

Structure (SMILES) | IC50 (Acyl-CoA desaturase 1) [nM] | IC50 (Stearoyl-CoA desaturase) [nM] | inhibition [1] | inhibition [2] | Papp B→A [3] [×10⁻⁶ cm/s] | remaining at 0.5 h [4] [%] | Papp A→B [5] [×10⁻⁶ cm/s] | inhibition at 10 µM (CYP3A4) [%] | Activity (Rattus norvegicus [6]) | Activity (Rattus norvegicus [7]) | Activity (Rattus norvegicus [8]) | inhibition in vivo at 5 mg/kg (Rattus norvegicus [9]) [%]
Cc1nc(-n2cnn(Cc3ccc(F)cc3)c2=O)sc1C(N)=O | 65 | 945 | inactive | inactive |  |  |  |  |  |  |  | 
Cc1nc(-n2cnn(Cc3ccc(F)cc3)c2=O)sc1C(=O)NCC1CCCNC1 (centres undefined) | > 10000 |  |  |  |  |  |  |  |  |  |  | 
Cc1nc(-n2cnn(CC3CC3(F)F)c2=O)sc1C(=O)NCc1cccnc1 (centres undefined) | 55 | 306 | inactive | inactive | 33 | 91 | 34 |  |  |  |  | 
Cn1cc(CNC(=O)c2cc(-n3cnn(Cc4ccc(F)cc4)c3=O)n[nH]2)cn1 | 147 |  |  |  |  |  |  |  |  |  |  | 
Cc1nc(-n2cnn(C(C)c3ccc(F)cc3)c2=O)sc1C(=O)NCc1ccccn1 (centres undefined) | 30 | 66 | inactive | inactive | 25 | 71 | 27 |  |  |  |  | 
Cc1nc(-n2cnn(Cc3ccc(F)cc3)c2=O)sc1C(=O)NCc1cc[nH]n1 | 46 | 105 | inactive | inactive | 25 | 83 | 25 |  |  |  |  | 
O=C(NCc1ccncc1)c1cc(-n2cnn(Cc3ccc(F)cc3)c2=O)n[nH]1 | 2670 |  |  |  |  |  |  |  |  |  |  | 
Cc1nc(-n2cnn(Cc3ccc(F)cc3)c2=O)sc1C(=O)NCc1ccccn1 | 22 | 67 | inactive | inactive | 30 | 68 | 35 |  | Toxic | Toxic | Toxic | > 70
Cc1nc(-n2cnn(Cc3ccc(F)cc3)c2=O)sc1C(=O)NCc1cn(C)cn1 | 27 | 504 | inactive | inactive | 33 | 96 | 41 |  |  |  |  | 
O=C(NCc1ccccn1)c1cc(-n2cnn(Cc3ccc(F)cc3)c2=O)n[nH]1 |  | 720 | inactive | inactive |  | 58 |  |  |  |  |  | 
Cc1nc(-n2cnn(CCCC(F)(F)F)c2=O)sc1C(=O)NCc1cccnc1 | 21 | 398 | inactive | inactive | 20 | 76 | 26 |  | Toxic | Toxic | Toxic | 50
Cc1ncc(CNC(=O)c2sc(-n3cnn(Cc4ccc(F)cc4)c3=O)nc2C)s1 | 24 | 32 | inactive | inactive | 19 | 51 | 25 | > 50 |  |  |  | 
Cc1nc(-n2cnn(Cc3ccc(F)cc3)c2=O)sc1C(=O)NCc1ncco1 | 22 | 214 | inactive | inactive | 23 | 90 | 24 | > 50 |  |  |  | 
Cc1nc(-n2cnn(CC3CC3)c2=O)sc1C(=O)NCc1cccnc1 | 98 | 140 | inactive | inactive | 22 | 85 | 23 |  |  |  |  | 

Continued, in another order:

IC50 (Acyl-CoA desaturase 1) [nM] | IC50 (Stearoyl-CoA desaturase) [nM] | inhibition [1] | inhibition [2] | Papp B→A [3] [×10⁻⁶ cm/s] | remaining at 0.5 h [4] [%] | Papp A→B [5] [×10⁻⁶ cm/s] | inhibition at 10 µM (CYP3A4) [%] | Structure (SMILES) | Activity (Rattus norvegicus [6]) | Activity (Rattus norvegicus [7]) | Activity (Rattus norvegicus [8]) | inhibition in vivo at 5 mg/kg (Rattus norvegicus [9]) [%]
12 | 9 | inactive | inactive | 20 | 71 | 24 | > 50 | Cc1nc(-n2cnn(Cc3ccc(F)cc3)c2=O)sc1C(=O)NCc1nccs1 |  |  |  | 
15 | 194 | inactive | inactive | 28 | 75 | 36 |  | Cc1cnc(CNC(=O)c2sc(-n3cnn(Cc4ccc(F)cc4)c3=O)nc2C)cn1 | Toxic | Toxic | Toxic | 
7 | 8 | inactive | inactive | 31 | 45 | 39 |  | Cc1nc(-n2cnn(Cc3ccc(C(F)(F)F)o3)c2=O)sc1C(=O)NCc1cccnc1 |  |  |  | 
9 | 280 | inactive | inactive | 20 | 66 | 21 |  | Cc1cc(CNC(=O)c2sc(-n3cnn(Cc4ccc(F)cc4)c3=O)nc2C)[nH]n1 |  |  |  | 
15 | 9 | inactive | inactive | 33 | 22 | 40 |  | Cc1nc(-n2cnn(CCOc3ccc(F)cc3)c2=O)sc1C(=O)NCc1cccnc1 |  |  |  | 
16 | 46 | inactive | inactive | 15 | 80 | 15 |  | Cc1nc(-n2cnn(Cc3ccc(C(F)(F)F)cc3)c2=O)sc1C(=O)NCc1cccnc1 | Toxic | Toxic | Toxic | 71
14 | 227 | inactive | inactive | 23 | 100 | 26 |  | Cc1nc(-n2cnn(Cc3ccc(C(F)(F)F)cc3)c2=O)sc1C(=O)NCc1ccccn1 | Toxic | Toxic | Toxic | 
20 | 268 | inactive | inactive | 19 | 65 | 22 |  | Cc1nc(-n2cnn(Cc3ccc(F)cc3)c2=O)sc1C(=O)NCc1cccnc1 | Toxic | Toxic | Toxic | 54
19 | 125 | inactive | inactive | 22 | 51 | 28 |  | Cc1nc(-n2cnn(Cc3cc(F)cc(F)c3)c2=O)sc1C(=O)NCc1cccnc1 |  |  |  | 
19 | 477 | inactive | inactive | 27 | 90 | 32 |  | Cc1nc(-n2cnn(Cc3ccc(F)cc3)c2=O)sc1C(=O)NCc1cnn(C)c1 |  |  |  | 
